This passage reports IC50 results from patent US20250019387A1 (Frontier Medicines Corporation, priority 0001, published 2025).

A word on the IC50: it is the concentration that inhibits the measured activity by half.

The target of this assay is KRAS G12C and cRAF (Ras-binding domain) interaction (Homo sapiens (Human), UniProt P01116, C118S/C51S/C80L/G12C). In words: Inhibition of KRAS G12C and cRAF binding (AlphaScreen). The conditions noted are these: GMPPNP-loaded KRAS G12C, 19-20 hours incubation with compound; read-out: IC50 (Inhibition of KRAS G12C and cRAF Binding). The method in brief: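 IC50 values come from 4-parameter nonlinear regression of AlphaScreen signal (680 nm excitation, 570 nm emission). Compound plates sat 19-20 h at room temperature before RBD and donor/acceptor beads were added in Hepes pH 7.4 buffer with 150 mM NaCl, 5 mM MgCl2, 2% DMSO for 60-90 min; biotin-AviTag-GST replaced RBD to flag assay-technology interferers.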
KRAS G12C and cRAF (Ras-binding domain) interaction, sequence (P01116 other isoform, or with tags, fused parts or gaps G12C/C51S/C80L/C118S): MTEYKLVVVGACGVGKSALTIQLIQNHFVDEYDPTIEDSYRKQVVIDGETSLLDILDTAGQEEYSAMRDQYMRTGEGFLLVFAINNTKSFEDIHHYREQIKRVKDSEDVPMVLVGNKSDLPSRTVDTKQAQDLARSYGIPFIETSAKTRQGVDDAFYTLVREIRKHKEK
For orientation: In Alpha technology, singlet oxygen from a donor bead excites a nearby acceptor bead.
For `COC(=O)/C=C/C(=O)N1CC[C@H](N(C)c2nc(OC[C@@H]3CCCN3C)nc3c(F)c(-c4cccc5cccc(Cl)c45)ncc23)C1` [Example 26, methyl(E)-4-((S)-3-((7-(8-chloronaphthalen-1-yl)-8-fluoro-2-(((S)-1-methylpyrrolidin-2-yl)methoxy)pyrido[4,3-d]pyrimidin-4-yl)(methyl)amino)pyrrolidin-1-yl)-4-oxobut-2-enoate], the IC50 is over 500 nM.

Regarding `COC(=O)/C=C/C(=O)N1CC[C@@H](N(C)c2nc(OC[C@@H]3CCCN3C)nc3c(F)c(-c4cccc5cccc(Cl)c45)ncc23)C1` [Example 27, methyl(E)-4-((R)-3-((7-(8-chloronaphthalen-1-yl)-8-fluoro-2-(((S)-1-methylpyrrolidin-2-yl)methoxy)pyrido[4,3-d]pyrimidin-4-yl)(methyl)amino)pyrrolidin-1-yl)-4-oxobut-2-enoate], the IC50 is under 10 nM.

`CN(CC1CN(C#N)C1)c1nc(OCC23CCCN2CCC3)nc2c(F)c(-c3cccc4cccc(Cl)c34)ncc12` [Example 28, 3-(((7-(8-chloronaphthalen-1-yl)-8-fluoro-2-((tetrahydro-1H-pyrrolizin-7a(5H)-yl)methoxy)pyrido[4,3-d]pyrimidin-4-yl)(methyl)amino)methyl)azetidine-1-carbonitrile]: the IC50 lay within 10 to 100 nM.

Regarding `CN(c1nc(OC[C@@H]2CCCN2C)nc2c1CCN(c1cccc3cccc(Cl)c13)C2)C1CCN(C#N)C1` (stereo partly drawn) [Example 29, 3-((7-(8-chloronaphthalen-1-yl)-2-(((S)-1-methylpyrrolidin-2-yl)methoxy)-5,6,7,8-tetrahydropyrido[3,4-d]pyrimidin-4-yl)(methyl)amino)pyrrolidine-1-carbonitrile], the IC50 was 100 to 500 nM.

For `CN(CC1CN(C#N)C1)c1nc(OC[C@@H]2CCCN2C)nc2c1CCN(c1cccc3cccc(Cl)c13)C2` [Example 30, (S)-3-(((7-(8-chloronaphthalen-1-yl)-2-((1-methylpyrrolidin-2-yl)methoxy)-5,6,7,8-tetrahydropyrido[3,4-d]pyrimidin-4-yl)(methyl)amino)methyl)azetidine-1-carbonitrile], the IC50 was over 500 nM.

With `CN(CC1CCN(C#N)C1)c1nc(OC[C@@H]2CCCN2C)nc2c1CCN(c1cccc3cccc(Cl)c13)C2` (stereo partly drawn) [Example 31, 3-(((7-(8-chloronaphthalen-1-yl)-2-(((S)-1-methylpyrrolidin-2-yl)methoxy)-5,6,7,8-tetrahydropyrido[3,4-d]pyrimidin-4-yl)(methyl)amino)methyl)pyrrolidine-1-carbonitrile], the IC50 is over 500 nM.

For `CN1CCC[C@H]1COc1nc2c(c(N3CCC(CNC#N)CC3)n1)CCN(c1cccc3cccc(Cl)c13)C2` [Example 32, (S)-N-((1-(7-(8-chloronaphthalen-1-yl)-2-((1-methylpyrrolidin-2-yl)methoxy)-5,6,7,8-tetrahydropyrido[3,4-d]pyrimidin-4-yl)piperidin-4-yl)methyl)cyanamide], the IC50 is over 500 nM.

In the case of `CN1CCC[C@H]1COc1nc2c(c(N(C)[C@@H]3CCN(C#N)C3)n1)CCN(c1cccc3cccc(Cl)c13)C2` [Example 33, (R)-3-((7-(8-chloronaphthalen-1-yl)-2-(((S)-1-methylpyrrolidin-2-yl)methoxy)-5,6,7,8-tetrahydropyrido[3,4-d]pyrimidin-4-yl)(methyl)amino)pyrrolidine-1-carbonitrile], the IC50 fell in the range of 100 to 500 nM.

Turning to `CN(CCC1CN(C#N)C1)c1nc(OC[C@@H]2CCCN2C)nc2c1CCN(c1cccc3cccc(Cl)c13)C2` [Example 34, (S)-3-(2-((7-(8-chloronaphthalen-1-yl)-2-((l-methylpyrrolidin-2-yl)methoxy)-5,6,7,8-tetrahydropyrido[3,4-d]pyrimidin-4-yl)(methyl)amino)ethyl)azetidine-1-carbonitrile], the IC50 is 100 to 500 nM.

In the case of `CN(c1nc(OC[C@@H]2CCCN2C)nc2c(F)c(-c3cccc4cccc(Cl)c34)ncc12)C1CCN(C#N)C1` (stereo partly drawn) [Example 35, 3-((7-(8-chloronaphthalen-1-yl)-8-fluoro-2-(((S)-1-methylpyrrolidin-2-yl)methoxy)pyrido[4,3-d]pyrimidin-4-yl)(methyl)amino)pyrrolidine-1-carbonitrile], the concentration for half-maximal inhibition (IC50) lay within 10 to 100 nM.

`CN1CCC[C@H]1COc1nc(N(C)[C@@H]2CCN(C#N)C2)c2cnc(-c3cccc4cccc(Cl)c34)c(F)c2n1` [Example 36, (R)-3-((7-(8-chloronaphthalen-1-yl)-8-fluoro-2-(((S)-1-methylpyrrolidin-2-yl)methoxy)pyrido[4,3-d]pyrimidin-4-yl)(methyl)amino)pyrrolidine-1-carbonitrile]: the IC50 lay in the range of 10 to 100 nM.

With `CN1CCC[C@H]1COc1nc2c(c(N3CC[C@@H]4CN(C#N)C[C@@H]43)n1)CCN(c1cccc3cccc(Cl)c13)C2` [Example 37, (3aR,6aR)-1-(7-(8-chloronaphthalen-1-yl)-2-(((S)-1-methylpyrrolidin-2-yl)methoxy)-5,6,7,8-tetrahydropyrido[3,4-d]pyrimidin-4-yl)hexahydropyrrolo[3,4-b]pyrrole-5(1H)-carbonitrile], the IC50 lay within 100 to 500 nM.

Regarding `C[C@@H]1C[C@@H](N(C)c2nc(OC[C@@H]3CCCN3C)nc3c2CCN(c2cccc4cccc(Cl)c24)C3)CN1C#N` [Example 38, (2R,4R)-4-((7-(8-chloronaphthalen-1-yl)-2-(((S)-1-methylpyrrolidin-2-yl)methoxy)-5,6,7,8-tetrahydropyrido[3,4-d]pyrimidin-4-yl)(methyl)amino)-2-methylpyrrolidine-1-carbonitrile], the IC50 was over 500 nM.

As for `CN(c1nc(OCC23CCCN2CCC3)nc2c1CCN(c1cccc3cccc(Cl)c13)C2)[C@@H]1CCN(C#N)C1` [Example 39, (R)-3-((7-(8-chloronaphthalen-1-yl)-2-((tetrahydro-1H-pyrrolizin-7a(5H)-yl)methoxy)-5,6,7,8-tetrahydropyrido[3,4-d]pyrimidin-4-yl)(methyl)amino)pyrrolidine-1-carbonitrile], the IC50 was in the range of 100 to 500 nM.

Consider `C=CC(=O)CN(C)c1nc(OC[C@@H]2CCCN2C)nc2c1CCN(c1cccc3cccc(Cl)c13)C2` [Example 40, (S)-1-((7-(8-chloronaphthalen-1-yl)-2-((1-methylpyrrolidin-2-yl)methoxy)-5,6,7,8-tetrahydropyrido[3,4-d]pyrimidin-4-yl)(methyl)amino)but-3-en-2-one], for which the IC50 lay within 10 to 100 nM.

For `C=CC(=O)C1CN(c2nc(OC[C@@H]3CCCN3C)nc3c2CCN(c2cccc4cccc(Cl)c24)C3)C1` [Example 41, (S)-1-(1-(7-(8-chloronaphthalen-1-yl)-2-((1-methylpyrrolidin-2-yl)methoxy)-5,6,7,8-tetrahydropyrido[3,4-d]pyrimidin-4-yl)azetidin-3-yl)prop-2-en-1-one], the IC50 is 10 to 100 nM.

Turning to `C=CC(=O)C1CCN(c2nc(OC[C@@H]3CCCN3C)nc3c2CCN(c2cccc4cccc(Cl)c24)C3)CC1` [Example 42, (S)-1-(1-(7-(8-chloronaphthalen-1-yl)-2-((1-methylpyrrolidin-2-yl)methoxy)-5,6,7,8-tetrahydropyrido[3,4-d]pyrimidin-4-yl)piperidin-4-yl)prop-2-en-1-one], the IC50 is 10 to 100 nM.

Turning to `C=CC(=O)[C@@H]1[C@@H]2CN(c3nc(OC[C@@H]4CCCN4C)nc4c3CCN(c3cccc5cccc(Cl)c35)C4)C[C@@H]21` [Example 45, 1-((1R,5S,6R)-3-(7-(8-chloronaphthalen-1-yl)-2-(((S)-1-methylpyrrolidin-2-yl)methoxy)-5,6,7,8-tetrahydropyrido[3,4-d]pyrimidin-4-yl)-3-azabicyclo[3.1.0]hexan-6-yl)prop-2-en-1-one], the IC50 was 10 to 100 nM.

In the case of `C=CS(=O)(=O)CCCN(C)c1nc(OC[C@@H]2CCCN2C)nc2c1CCN(c1cccc3cccc(Cl)c13)C2` [Example 46, (S)-7-(8-chloronaphthalen-1-yl)-N-methyl-2-((1-methylpyrrolidin-2-yl)methoxy)-N-(3-(vinylsulfonyl)propyl)-5,6,7,8-tetrahydropyrido[3,4-d]pyrimidin-4-amine], the IC50 was over 500 nM.

For `C=CS(=O)(=O)CCN(C)c1nc(OC[C@@H]2CCCN2C)nc2c1CCN(c1cccc3cccc(Cl)c13)C2` [Example 47, (S)-7-(8-chloronaphthalen-1-yl)-N-methyl-2-((1-methylpyrrolidin-2-yl)methoxy)-N-(2-(vinylsulfonyl)ethyl)-5,6,7,8-tetrahydropyrido[3,4-d]pyrimidin-4-amine], the IC50 lay within 10 to 100 nM.

For `C=CS(=O)(=O)[C@H]1C[C@H](N(C)c2nc(OC[C@@H]3CCCN3C)nc3c2CCN(c2cccc4cccc(Cl)c24)C3)C1` [Example 48, 7-(8-chloronaphthalen-1-yl)-N-methyl-2-(((S)-1-methylpyrrolidin-2-yl)methoxy)-N-((1r,3S)-3-(vinylsulfonyl)cyclobutyl)-5,6,7,8-tetrahydropyrido[3,4-d]pyrimidin-4-amine], the IC50 was in the range of 100 to 500 nM.

As to `C=CS(=O)(=O)CCN(C)c1nc(OCC23CCCN2CCC3)nc2c1CCN(c1cccc3cccc(Cl)c13)C2` [Example 49, 7-(8-chloronaphthalen-1-yl)-2-((hexahydro-1H-pyrrolizin-7a-yl)methoxy)-N-methyl-N-(2-(vinylsulfonyl)ethyl)-5,6,7,8-tetrahydropyrido[3,4-d]pyrimidin-4-amine], the IC50 is under 10 nM.

In the case of `C=CS(=O)(=O)C1CN(c2nc(OC[C@@H]3CCCN3C)nc3c2CCN(c2cccc4cccc(Cl)c24)C3)C1` [Example 50, (S)-7-(8-chloronaphthalen-1-yl)-2-((1-methylpyrrolidin-2-yl)methoxy)-4-(3-(vinylsulfonyl)azetidin-1-yl)-5,6,7,8-tetrahydropyrido[3,4-d]pyrimidine], the IC50 was over 500 nM.
